Like-named read-outs stand apart in the source and are kept apart here.
Experiments:
BsIMPDH = target: T1, BsIMPDH (Bacillus subtilis, UniProt P21879); experiment: biochemical; format: biochemical, Bacillus subtillis; settings: for effect on catalytic activity: ATP with or without 5 mM MgCl2
T1 construct: His8 (TEV site) (N, cleaved yes); made in house; host or cells: E. coli BL21 (DE3)
Procedure: (§1) IMPDH activity was assayed by monitoring the reduction of NAD^+ to NADH and the subsequent increase in absorbance at 340 nm in buffer: 100 mM Tris-HCl, 100 mM KCl, 2 mM DTT pH 8.0. […] When Mg^+2 was included in the reaction, the total concentration of MgCl2 was 5 mM. The experimental data were fitted to the Michaelis–Menten equation of enzyme kinetics using the OriginPro software (OriginLab Corporation), to obtain the maximum apparent initial velocity (Vmax^app) and the apparent Michaelis–Menten constant (KM^app):
(§2) Following this equation, the global nonlinear regression analysis of Vmax^app and KM^app, as a function of the inhibitor concentration, allowed the intrinsic Michaelis–Menten constant (KM) and inhibition constant (Ki) for competitive inhibition to be determined. The substrate–inhibitor heterotropic cooperative interaction and the fractional activity of the ternary enzyme–substrate–inhibitor complex, α and β respectively, were estimated using a mixed inhibition model:
(§3) The constant α reflects the effect of the inhibitor on the apparent affinity of the enzyme for the substrate.

AgIMPDH ΔBateman = experiment: IMPDH activity assay, mutant lacking the Bateman domain; format: biochemical, A. gossypii; settings: 2 mM nucleotide
Procedure: as §1, with “(KM^app): […]” for “(KM^app):”

EcIMPDH = target: T2, EcIMPDH (Escherichia coli, UniProt P0ADG7); experiment: biochemical; format: biochemical; settings: for effect on catalytic activity: ATP with or without 5 mM MgCl2
T2 construct: His8 (TEV site) (N, cleaved yes); made in house; host or cells: E. coli BL21 (DE3)
T2 sequence (P0ADG7 whole entry): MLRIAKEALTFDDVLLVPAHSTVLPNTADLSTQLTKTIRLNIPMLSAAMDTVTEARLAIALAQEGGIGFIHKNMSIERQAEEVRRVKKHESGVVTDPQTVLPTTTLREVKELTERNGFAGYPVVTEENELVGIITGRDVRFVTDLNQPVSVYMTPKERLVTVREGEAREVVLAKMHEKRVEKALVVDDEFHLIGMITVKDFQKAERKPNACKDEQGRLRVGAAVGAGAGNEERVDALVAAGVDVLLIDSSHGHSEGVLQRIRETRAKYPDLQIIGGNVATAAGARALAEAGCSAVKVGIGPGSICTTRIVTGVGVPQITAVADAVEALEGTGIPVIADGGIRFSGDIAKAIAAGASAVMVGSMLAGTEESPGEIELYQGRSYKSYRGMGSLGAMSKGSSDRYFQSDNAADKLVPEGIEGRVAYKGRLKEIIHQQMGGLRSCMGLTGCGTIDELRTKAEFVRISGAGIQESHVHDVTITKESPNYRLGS
Procedure: as §1, §2, §3

HsIMPDH1 = target: T3, HsIMPDH1 (Homo sapiens, UniProt P20839); experiment: IMPDH activity assay and enzyme kinetics, HsIMPDH1; format: biochemical; settings: for α (substrate–inhibitor heterotropic cooperative interaction) / β (fractional activity of the ternary enzyme–substrate-inhibitor complex): mixed inhibition model; for effect on catalytic activity: ATP with or without 5 mM MgCl2
T3 construct: His8 (modified pET15b vector, TEV site) (N); made in house
T3 sequence (P20839 whole entry): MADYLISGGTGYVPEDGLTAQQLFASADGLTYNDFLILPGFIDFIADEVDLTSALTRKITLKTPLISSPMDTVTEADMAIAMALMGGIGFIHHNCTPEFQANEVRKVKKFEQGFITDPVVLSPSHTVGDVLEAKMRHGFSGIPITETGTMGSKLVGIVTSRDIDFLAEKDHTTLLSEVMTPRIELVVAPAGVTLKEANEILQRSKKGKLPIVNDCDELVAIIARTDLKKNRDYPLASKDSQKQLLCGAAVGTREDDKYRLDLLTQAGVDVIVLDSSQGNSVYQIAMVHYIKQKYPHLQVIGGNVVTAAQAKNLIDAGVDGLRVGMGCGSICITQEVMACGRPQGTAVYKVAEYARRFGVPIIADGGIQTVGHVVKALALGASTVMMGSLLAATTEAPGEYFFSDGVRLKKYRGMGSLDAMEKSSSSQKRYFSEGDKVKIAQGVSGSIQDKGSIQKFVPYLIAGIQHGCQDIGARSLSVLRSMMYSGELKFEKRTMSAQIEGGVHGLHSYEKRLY
Procedure: as §1, §2, §3

AgIMPDH [1] = target: T4, AgIMPDH (Eremothecium gossypii, UniProt Q756Z6); experiment: IMPDH activity assay and enzyme kinetics (NADH absorbance at 340 nm), AgIMPDH; format: biochemical, A. gossypii; settings: for α (substrate–inhibitor heterotropic cooperative interaction) / β (fractional activity of the ternary enzyme–substrate-inhibitor complex): mixed inhibition model; for effect on AgIMPDH catalytic activity in vitro: adenine nucleotides
Procedure: as §1, §2, §3

HsIMPDH2 = target: T5, HsIMPDH2 (Homo sapiens, UniProt P12268); experiment: IMPDH activity assay and enzyme kinetics, HsIMPDH2; format: biochemical; settings: for α (substrate–inhibitor heterotropic cooperative interaction) / β (fractional activity of the ternary enzyme–substrate-inhibitor complex): mixed inhibition model; for effect on catalytic activity: ATP with or without 5 mM MgCl2
T5 construct: His8 (modified pET15b vector, TEV site) (N); made in house
Procedure: as §1, §2, §3

AgIMPDH-ΔBateman = AgIMPDH-ΔBateman (Eremothecium gossypii, UniProt Q756Z6, DEL116-235/INS115SQDG); experiment: Isothermal titration calorimetry, AgIMPDH-ΔBateman; format: binding, A. gossypii
Procedure: (§4) Standard ITC experiments were performed using an AutoITC200 system (Malvern Instruments). […] The resulting heats were integrated and fitted to a single binding site model implemented in the software package Origin (OriginLab Corporation).

AgIMPDH [2] = target: T4, AgIMPDH; experiment: biochemical
Procedure: as §4

AgIMPDH [3] = target: T4, AgIMPDH; settings: GMP titration, WT
Procedure: as §4

T1 sequence (P21879 whole entry): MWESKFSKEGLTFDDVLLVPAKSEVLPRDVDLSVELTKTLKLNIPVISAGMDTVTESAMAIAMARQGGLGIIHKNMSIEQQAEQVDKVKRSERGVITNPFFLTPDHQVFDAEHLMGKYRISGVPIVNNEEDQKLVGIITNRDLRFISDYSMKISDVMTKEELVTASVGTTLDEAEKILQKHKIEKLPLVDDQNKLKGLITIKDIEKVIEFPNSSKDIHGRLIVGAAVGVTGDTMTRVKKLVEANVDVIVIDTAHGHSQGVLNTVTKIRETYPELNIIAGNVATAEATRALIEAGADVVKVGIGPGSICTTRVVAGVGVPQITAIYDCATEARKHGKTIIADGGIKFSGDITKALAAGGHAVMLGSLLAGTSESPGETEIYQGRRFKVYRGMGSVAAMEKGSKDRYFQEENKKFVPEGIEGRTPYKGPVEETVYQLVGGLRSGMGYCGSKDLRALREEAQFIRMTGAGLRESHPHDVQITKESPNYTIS

With `Nc1nc2c(ncn2[C@@H]2O[C@H](COP(=O)(O)OP(=O)(O)OP(=O)(O)O)[C@@H](O)[C@H]2O)c(=O)[nH]1` [GTP, guanosine-5′-triphosphate] the “Inhibition (type)” value (BsIMPDH) was “No”, the “effect on enzymatic activity of ΔBateman mutant (KM app/KM)” value (“effect … of ΔBateman mutant (KM app/KM)” for short) (AgIMPDH ΔBateman) was “not significantly affected” and the “Inhibition (type)” value (EcIMPDH) was “Competitive”. The “Inhibition (type)” value (HsIMPDH1) was “Mixed type”, the Ki (HsIMPDH1) was 540 ± 60 µM and the “α (substrate–inhibitor heterotropic cooperative interaction)” value (HsIMPDH1) was 3.8±0.5. The “β (fractional activity of the ternary enzyme–substrate-inhibitor complex)” value (HsIMPDH1) was 0.11±0.04, the “Inhibition (type)” value (AgIMPDH [1]) was “Mixed type” and the “α (substrate–inhibitor heterotropic cooperative interaction)” value (AgIMPDH [1]) was 4.1±0.7. For the same compound, the “β (fractional activity of the ternary enzyme–substrate-inhibitor complex)” value (AgIMPDH [1]) was 0.24±0.05, the Ki (AgIMPDH [1]; read-out: Ki) was 160 ± 40 µM and the “Inhibition (type)” value (HsIMPDH2) was “Mixed type”. The Ki (HsIMPDH2) was 480 ± 60 µM, the “α (substrate–inhibitor heterotropic cooperative interaction)” value (HsIMPDH2) was 3.0±0.4 and the “β (fractional activity of the ternary enzyme–substrate-inhibitor complex)” value (HsIMPDH2) was 0.51±0.08.
For `Nc1ncnc2c1ncn2[C@@H]1O[C@H](COP(=O)(O)OP(=O)(O)OP(=O)(O)O)[C@@H](O)[C@H]1O` [ATP], the “effect on catalytic activity” value (BsIMPDH) was “neither ATP nor Mg-ATP showed a significant effect”, the “effect on catalytic activity” value (EcIMPDH) was “neither ATP nor Mg-ATP showed a significant effect” and the “effect on catalytic activity” value (HsIMPDH1) was “neither ATP nor Mg-ATP showed a significant effect”. For the same compound, the “effect on AgIMPDH catalytic activity in vitro” value (“effect … in vitro” below) (AgIMPDH [1]) was “did not exert any significant effect” and the “effect on catalytic activity” value (HsIMPDH2) was “neither ATP nor Mg-ATP showed a significant effect”.
For `Nc1ncnc2c1ncn2[C@@H]1O[C@H](COP(=O)(O)OP(=O)([O-])OP(=O)([O-])O)[C@@H](O)[C@H]1O.[Mg+2]` [Mg-ATP], the “effect on catalytic activity” value (BsIMPDH) was “neither ATP nor Mg-ATP showed a significant effect”, the “effect on catalytic activity” value (EcIMPDH) was “neither ATP nor Mg-ATP showed a significant effect” and the “effect on catalytic activity” value (HsIMPDH1) was “neither ATP nor Mg-ATP showed a significant effect”. The “effect on catalytic activity of AgIMPDH (Vmax app/Vmax, KM app/KM)” value (AgIMPDH [1]; total MgCl2 5 mM) was “not affected” and the “effect on catalytic activity” value (HsIMPDH2) was “neither ATP nor Mg-ATP showed a significant effect”.
For `Nc1nc2c(ncn2[C@@H]2O[C@H](COP(=O)(O)OP(=O)(O)O)[C@@H](O)[C@H]2O)c(=O)[nH]1` [GDP, guanosine-5′-diphosphate], the “Inhibition (type)” value (BsIMPDH) was “Mixed type—weak”, the Ki (BsIMPDH) was 2300 ± 400 µM and the “α (substrate–inhibitor heterotropic cooperative interaction)” value (BsIMPDH; mixed inhibition model) was 2.9±0.4. The “β (fractional activity of the ternary enzyme–substrate-inhibitor complex)” value (BsIMPDH; mixed inhibition model) was 0.8±0.1, the “effect … of ΔBateman mutant (KM app/KM)” value (AgIMPDH ΔBateman) was “not significantly affected” and the “Inhibition (type)” value (EcIMPDH) was “No”. For the same compound, the “Inhibition (type)” value (HsIMPDH1) was “Mixed type”, the Ki (HsIMPDH1) was 230 ± 40 µM and the “α (substrate–inhibitor heterotropic cooperative interaction)” value (HsIMPDH1) was 4.7±0.7. The “β (fractional activity of the ternary enzyme–substrate-inhibitor complex)” value (HsIMPDH1) was 0.12±0.04, the “Inhibition (type)” value (AgIMPDH [1]) was “Mixed type” and the “α (substrate–inhibitor heterotropic cooperative interaction)” value (AgIMPDH [1]) was 6.5±0.8. For the same compound, the “β (fractional activity of the ternary enzyme–substrate-inhibitor complex)” value (AgIMPDH [1]) was 0.033±0.005, the Ki (AgIMPDH [1]; read-out: Ki) was 210 ± 40 µM and the “Inhibition (type)” value (HsIMPDH2) was “Mixed type”. The Ki (HsIMPDH2) was 610 ± 60 µM, the “α (substrate–inhibitor heterotropic cooperative interaction)” value (HsIMPDH2) was 6.6±0.8 and the “β (fractional activity of the ternary enzyme–substrate-inhibitor complex)” value (HsIMPDH2) was 0.14±0.05.
In the case of `Nc1ncnc2c1ncn2[C@@H]1O[C@H](COP(=O)(O)OP(=O)(O)O)[C@@H](O)[C@H]1O` [ADP], the “effect … in vitro” value (AgIMPDH [1]) is reported as “did not exert any significant effect”.
In the case of `Nc1ncnc2c1ncn2[C@@H]1O[C@H](COP(=O)(O)O)[C@@H](O)[C@H]1O` [AMP], the “effect … in vitro” value (AgIMPDH [1]) is reported as “did not exert any significant effect”.
With `Nc1nc2c(ncn2[C@@H]2O[C@H](COP(=O)(O)O)[C@@H](O)[C@H]2O)c(=O)[nH]1` [GMP, guanosine-5′-monophosphate] the “Inhibition (type)” value (BsIMPDH) was “Competitive”, the Ki (BsIMPDH) was 420 ± 70 µM and the “effect … of ΔBateman mutant (KM app/KM)” value (AgIMPDH ΔBateman) was “inhibited the wild-type and ΔBateman enzymes in a similar manner”. The “Inhibition (type)” value (EcIMPDH) was “Competitive”, the Ki (EcIMPDH) was 1100 ± 100 µM and the Kd (AgIMPDH-ΔBateman) was 22 µM. For the same compound, the “n (binding stoichiometry)” value (AgIMPDH-ΔBateman; GMP titration, ΔBateman) was 1.0, the ΔH (AgIMPDH-ΔBateman; GMP titration, ΔBateman) was -32.2 kJ/mol and the “Inhibition (type)” value (HsIMPDH1) was “Competitive”. The Kd (AgIMPDH [2]) was 24 µM, the “Inhibition (type)” value (AgIMPDH [1]) was “Competitive” and the Ki (AgIMPDH [1]) was 600 ± 100 µM. For the same compound, the “Inhibition (type)” value (HsIMPDH2) was “Competitive”, the “n (binding stoichiometry)” value (AgIMPDH [3]) was 0.9 and the ΔH (AgIMPDH [3]) was -38.1 kJ/mol.
